Format in all cases: biochemical
The target of one assay is PDE1B (Homo sapiens (Human), UniProt Q01064). Description: PDE1 inhibition assay (PDE1B). The settings on record: 15 nM tritium labelled cAMP, 1 hr at room temperature, SPA beads. The source says: (§1) Table 1 lists the IC50 value for inhibition of PDE1 by the compounds of the invention. […] PDE1 assays are described in the Experimental Section.
The target of another assay is PDE1A (Homo sapiens (Human), UniProt P54750). Description: biochemical. The conditions noted are these: 15 nM tritium labelled cAMP, 1 hr at room temperature, SPA beads.
Chain of PDE1A (P54750 whole entry): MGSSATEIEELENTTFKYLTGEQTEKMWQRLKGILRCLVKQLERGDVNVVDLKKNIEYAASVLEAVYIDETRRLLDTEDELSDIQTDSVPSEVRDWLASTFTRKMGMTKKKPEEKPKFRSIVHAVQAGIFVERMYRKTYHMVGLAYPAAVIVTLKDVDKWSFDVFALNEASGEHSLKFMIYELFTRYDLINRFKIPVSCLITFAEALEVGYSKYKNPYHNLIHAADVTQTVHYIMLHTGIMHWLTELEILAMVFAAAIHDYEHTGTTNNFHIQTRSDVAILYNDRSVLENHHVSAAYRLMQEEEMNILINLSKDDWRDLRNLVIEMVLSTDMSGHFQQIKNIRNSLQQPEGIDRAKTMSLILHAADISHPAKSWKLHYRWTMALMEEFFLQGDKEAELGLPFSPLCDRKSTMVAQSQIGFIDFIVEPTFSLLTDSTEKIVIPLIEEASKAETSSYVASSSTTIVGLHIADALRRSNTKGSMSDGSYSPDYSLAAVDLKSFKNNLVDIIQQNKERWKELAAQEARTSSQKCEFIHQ
Description: as §1

The target in the next assay is PDE1C (Homo sapiens (Human), UniProt Q14123). Description: biochemical.
Chain of PDE1C (Q14123 whole entry): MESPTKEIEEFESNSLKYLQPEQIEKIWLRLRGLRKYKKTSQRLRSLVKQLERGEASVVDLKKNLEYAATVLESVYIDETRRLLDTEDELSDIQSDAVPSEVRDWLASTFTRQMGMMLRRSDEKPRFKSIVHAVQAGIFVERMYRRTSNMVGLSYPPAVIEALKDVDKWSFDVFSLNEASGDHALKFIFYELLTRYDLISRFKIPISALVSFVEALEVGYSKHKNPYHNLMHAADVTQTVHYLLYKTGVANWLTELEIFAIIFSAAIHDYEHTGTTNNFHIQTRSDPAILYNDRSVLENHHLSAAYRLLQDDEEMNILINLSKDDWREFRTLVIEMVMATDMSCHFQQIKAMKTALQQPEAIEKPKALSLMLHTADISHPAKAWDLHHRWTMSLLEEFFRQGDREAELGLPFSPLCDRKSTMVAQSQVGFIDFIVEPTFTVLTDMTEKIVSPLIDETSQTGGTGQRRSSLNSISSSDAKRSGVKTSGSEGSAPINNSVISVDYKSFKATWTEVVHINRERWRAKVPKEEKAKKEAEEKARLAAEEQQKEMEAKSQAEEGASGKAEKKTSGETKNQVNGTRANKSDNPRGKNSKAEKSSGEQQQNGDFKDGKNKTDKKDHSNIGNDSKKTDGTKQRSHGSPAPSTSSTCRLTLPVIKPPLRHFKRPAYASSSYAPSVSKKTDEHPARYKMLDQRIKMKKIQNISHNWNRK
Description: as §1

Where [1] appears, read: 15 nM tritium labelled cAMP, 1 hr at room temperature, SPA beads.

Like-named read-outs stand apart in the source and are kept apart here.

Chain of PDE1B (Q01064 whole entry): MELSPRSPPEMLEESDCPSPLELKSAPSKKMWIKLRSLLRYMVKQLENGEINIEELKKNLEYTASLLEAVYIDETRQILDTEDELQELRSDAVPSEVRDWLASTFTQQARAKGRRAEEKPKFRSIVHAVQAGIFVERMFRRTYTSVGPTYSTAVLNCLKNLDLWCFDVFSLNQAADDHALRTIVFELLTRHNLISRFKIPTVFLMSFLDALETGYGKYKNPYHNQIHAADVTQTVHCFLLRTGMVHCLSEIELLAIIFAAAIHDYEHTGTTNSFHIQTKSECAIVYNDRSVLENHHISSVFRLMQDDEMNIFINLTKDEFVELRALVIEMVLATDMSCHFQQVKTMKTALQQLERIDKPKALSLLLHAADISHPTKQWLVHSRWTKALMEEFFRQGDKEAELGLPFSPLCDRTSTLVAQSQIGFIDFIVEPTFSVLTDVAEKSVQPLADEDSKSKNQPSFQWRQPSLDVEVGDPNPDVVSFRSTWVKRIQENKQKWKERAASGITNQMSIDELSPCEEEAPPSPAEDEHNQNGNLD

For orientation: IC50 means the concentration that inhibits the measured activity by half. Take `CCOc1ncccc1-c1cc(NCc2ccc(C)nc2)c2c(n1)c(C)nn2C(C)C` [Example 87, 5-(2-ethoxy-3-pyridyl)-1-isopropyl-3-methyl-N-[(6-methyl-3-pyridyl)methyl]pyrazolo[4,3-b]pyridin-7-amine]: the IC50 at PDE1B (read-out: PDE1B, IC50) was 0.95 nM; on PDE1A it was 6.3 nM; against PDE1C (setting [1]), 13 nM.

Consider `CCCOc1ncccc1-c1cc(NCc2ncn(C)n2)c2c(n1)c(C)nn2C(C)C` [Example 145, 1-isopropyl-3-methyl-N-[(1-methyl-1,2,4-triazol-3-yl)methyl]-5-(2-propoxy-3-pyridyl)pyrazolo[4,3-b]pyridin-7-amine], for which the IC50 was found to be 0.095 nM at PDE1B (read-out: PDE1B, IC50); 0.41 nM at PDE1A; 1.2 nM against PDE1C (setting [1]).

As for `Cc1nn(C(C)C)c2c(NCc3cc[nH]n3)cc(-c3ccc[nH]c3=O)nc12` [Example 187, 3-[1-isopropyl-3-methyl-7-(1H-pyrazol-3-ylmethylamino)pyrazolo[4,3-b]pyridin-5-yl]-1H-pyridin-2-one], the IC50 on PDE1B (read-out: PDE1B, IC50) came to 18 nM; at PDE1A, 140 nM; against PDE1C (setting [1]), 250 nM.

Turning to `CCOc1ncccc1-c1cc(NCc2cnccn2)c2c(n1)c(C)nn2C(C)C` [Example 76, 5-(2-ethoxy-3-pyridyl)-1-isopropyl-3-methyl-N-(pyrazin-2-ylmethyl)pyrazolo[4,3-b]pyridin-7-amine], the IC50 at PDE1B (read-out: PDE1B, IC50) was 2.9 nM; on PDE1A it was 23 nM; against PDE1C (setting [1]), 32 nM.

`CCOc1ncccc1-c1cc(NCc2nnc(C)o2)c2c(cnn2C(C)CC)n1` (single isomer, unassigned) [Example 138, 5-(2-ethoxy-3-pyridyl)-N-[(5-methyl-1,3,4-oxadiazol-2-yl)methyl]-1-[1-methylpropyl]pyrazolo[4,3-b]pyridin-7-amine]: the IC50 on PDE1B (PDE1B, IC50 (nM)) was determined as 6.8 nM; against PDE1A it was 93 nM; against PDE1C, 180 nM.

In the case of `CCOc1ncccc1-c1cc(NCc2nccn2C)c2c(cnn2C(C)C)n1` [Example 17, 5-(2-ethoxy-3-pyridyl)-1-isopropyl-N-[(1-methylimidazol-2-yl)methyl]pyrazolo[4,3-b]pyridin-7-amine], the IC50 on PDE1B (read-out: PDE1B, IC50) was determined as 54 nM; at PDE1A it was 700 nM; against PDE1C (setting [1]), 970 nM.

For `CCOc1ncccc1-c1cc(NCc2cc(C)n(C)n2)c2c(n1)c(C)nn2C(C)C` [Example 54, N-[(1,5-dimethylpyrazol-3-yl)methyl]-5-(2-ethoxy-3-pyridyl)-1-isopropyl-3-methyl-pyrazolo[4,3-b]pyridin-7-amine], the IC50 is 0.18 nM on PDE1B (read-out: PDE1B, IC50); 0.39 nM at PDE1A; 4.6 nM against PDE1C (setting [1]).

Regarding `CCOc1ncccc1-c1cc(NCc2cncnc2OC)c2c(n1)c(C)nn2C(C)C` [Example 190, 5-(2-ethoxy-3-pyridyl)-1-isopropyl-N-[(4-methoxypyrimidin-5-yl)methyl]-3-methyl-pyrazolo[4,3-b]pyridin-7-amine], the IC50 on PDE1B (read-out: PDE1B, IC50) was determined as 7.9 nM; against PDE1A, 74 nM; against PDE1C (setting [1]) it was 94 nM.

Turning to `Cc1nn(C(C)C)c2c(NCc3cnn(C)c3)cc(-c3cnnn3C)nc12` [Example 169, 1-isopropyl-3-methyl-N-[(1-methylpyrazol-4-yl)methyl]-5-(3-methyltriazol-4-yl)pyrazolo[4,3-b]pyridin-7-amine], the IC50 was 85 nM on PDE1B (read-out: PDE1B, IC50); 610 nM against PDE1A; 170 nM at PDE1C (setting [1]).

In the case of `COc1ncccc1CNc1cc(-c2ccnn2C)nc2c(C)nn(C(C)C)c12` [Example 175, 1-isopropyl-N-((2-methoxypyridin-3-yl)methyl)-3-methyl-5-(1-methyl-1H-pyrazol-5-yl)-1H-pyrazolo[4,3-b]pyridin-7-amine], the IC50 at PDE1B (read-out: PDE1B, IC50) was found to be 17 nM; against PDE1A it was 83 nM; on PDE1C (setting [1]), 130 nM.

Regarding `CCOc1ncccc1-c1cc(NCc2noc(C)n2)c2c(n1)c(C)nn2C(C)C` [Example 52, 5-(2-ethoxy-3-pyridyl)-1-isopropyl-3-methyl-N-[(5-methyl-1,2,4-oxadiazol-3-yl)methyl]pyrazolo[4,3-b]pyridin-7-amine], the IC50 on PDE1B (read-out: PDE1B, IC50) amounted to 0.17 nM; against PDE1A it was 1.9 nM; at PDE1C (setting [1]) it was 4.4 nM.

Turning to `CCCOc1ncccc1-c1cc(NCc2nnn(C)n2)c2c(n1)c(C)nn2C(C)C` [Example 93, 1-isopropyl-3-methyl-N-[(2-methyltetrazol-5-yl)methyl]-5-(2-propoxy-3-pyridyl)pyrazolo[4,3-b]pyridin-7-amine], the IC50 on PDE1B (read-out: PDE1B, IC50) came to 0.96 nM; on PDE1A it was 4.3 nM; on PDE1C (setting [1]), 17 nM.

With `CCOc1ncccc1-c1cc(NCc2ccncc2)c2c(cnn2C(C)C)n1` [Example 22, 5-(2-ethoxy-3-pyridyl)-1-isopropyl-N-(4-pyridylmethyl)pyrazolo[4,3-b]pyridin-7-amine], the IC50 came to 50 nM on PDE1B (read-out: PDE1B, IC50); 250 nM at PDE1A; 430 nM at PDE1C (setting [1]).

Turning to `Cc1nn(C(C)C)c2c(NCc3cnn(C)c3)cc(N3CCCC3=O)nc12` [Example 154, 1-[1-isopropyl-3-methyl-7-[(1-methylpyrazol-4-yl)methylamino]pyrazolo[4,3-b]pyridin-5-yl]pyrrolidin-2-one], the IC50 stood at 3.6 nM at PDE1B (read-out: PDE1B, IC50); 26 nM at PDE1A; 49 nM against PDE1C (setting [1]).

Take `CCOc1ncccc1-c1cc(NCc2cnn(C)n2)c2c(n1)c(C)nn2C(C)C` [Example 5, 5-(2-ethoxy-3-pyridyl)-1-isopropyl-3-methyl-N-[(2-methyltriazol-4-yl)methyl]pyrazolo[4,3-b]pyridin-7-amine]: the IC50 was found to be 1.8 nM at PDE1B (read-out: PDE1B, IC50); 11 nM on PDE1A; 28 nM on PDE1C (setting [1]).

For the compound `CCOc1ncccc1-c1cc(NCc2cnn(C)c2)c2c(n1)c(CF)nn2C(C)C` [Example 199, 5-(2-ethoxypyridin-3-yl)-3-(fluoromethyl)-1-isopropyl-N-((1-methyl-1H-pyrazol-4-yl)methyl)-1H-pyrazolo[4,3-b]pyridin-7-amine], the IC50 at PDE1B (read-out: PDE1B, IC50) turned out to be 0.75 nM; at PDE1A, 7.4 nM; at PDE1C (setting [1]) it was 26 nM.

For `CCOc1ncccc1-c1cc(NCc2cnc(C)s2)c2c(n1)c(C)nn2C(C)C` [Example 32, 5-(2-ethoxy-3-pyridyl)-1-isopropyl-3-methyl-N-[(2-methylthiazol-5-yl)methyl]pyrazolo[4,3-b]pyridin-7-amine], the IC50 on PDE1B (read-out: PDE1B, IC50) stood at 0.14 nM; against PDE1A, 4.6 nM; against PDE1C (setting [1]) it was 6.2 nM.

With `CCOc1ncccc1-c1cc(NCc2cccn(C)c2=O)c2c(n1)c(C)nn2C(C)C` [Example 108, 3-[[[5-(2-ethoxy-3-pyridyl)-1-isopropyl-3-methyl-pyrazolo[4,3-b]pyridin-7-yl]amino]methyl]-1-methyl-pyridin-2-one], the IC50 on PDE1B (read-out: PDE1B, IC50) worked out at 0.36 nM; against PDE1A, 2.8 nM; against PDE1C (setting [1]), 12 nM.

For the compound `COc1ncccc1-c1cc(NCc2cccnc2C(F)(F)F)c2c(n1)c(C)nn2C(C)C` [Example 170, 1-isopropyl-5-(2-methoxy-3-pyridyl)-3-methyl-N-[[2-(trifluoromethyl)-3-pyridyl]methyl]pyrazolo[4,3-b]pyridin-7-amine], the IC50 worked out at 5.3 nM on PDE1B (read-out: PDE1B, IC50); 42 nM against PDE1A; 46 nM on PDE1C (setting [1]).
